Literature values, collected in paper PMC11012124, “Synthesis of Novel Triazine-Based Chalcones and 8,9-dihydro-7H-pyrimido[4,5-b][1,4]diazepines as Potential Leads in the Search of Anticancer, Antibacterial and Antifungal Agents” (International Journal of Molecular Sciences, 2024).

Experiments:
Set-up in all cases: method as in earlier work
Conditions in all cases: ref https://dtp.cancer.gov/dtpstandard/cancerscreeningdata/index.jsp, read-out: GI50 5-FU (NS 18893); cited from earlier work
[1] = tested on: SN12C
[2] = tested on: SNB-75
[3] = tested on: OVCAR-3
[4] = tested on: HOP-92
[5] = tested on: SW-620
[6] = tested on: SR
[7] = tested on: RPMI-8226
[8] = tested on: MOLT-4
[9] = tested on: HCT-116
[10] = tested on: HL-60(TB)
[11] = tested on: CCRF-CEM
[12] = tested on: HCC-2998
[13] = tested on: RXF 393
[14] = tested on: CAKI-1
[15] = tested on: LOX IMVI
[16] = tested on: MDA-MB-468
[17] = tested on: KM12
[18] = tested on: SF-539
[19] = tested on: IGROV1
[20] = tested on: MCF7
[21] = tested on: K-562
[22] = tested on: UO-31
[23] = tested on: HT29
[24] = tested on: HCT-15
[25] = tested on: NCI-H522
[26] = tested on: U251

In the case of `O=c1[nH]cc(F)c(=O)[nH]1` [5-FU, 5-fluorouracil], the GI50 [1] is listed as 500 nM, the GI50 [2] is listed as 78700 nM and the GI50 [3] is listed as 20 nM. For the same molecule, the GI50 [4] was 78000 nM, the GI50 [5] was 930 nM and the GI50 [6] was 20 nM. The GI50 [7] was 40 nM, the GI50 [8] was 350 nM and the GI50 [9] was 230 nM. The GI50 [10] was 2510 nM, the GI50 [11] was 9790 nM and the GI50 [12] was 50 nM. The GI50 [13] was 2610 nM, the GI50 [14] was 70 nM and the GI50 [15] was 250 nM. The GI50 [16] was 6610 nM, the GI50 [17] was 210 nM and the GI50 [18] was 60 nM. For the same molecule, the GI50 [19] was 1220 nM, the GI50 [20] was 80 nM and the GI50 [21] was 3580 nM. For the same molecule, the GI50 [22] was 1430 nM, the GI50 [23] was 180 nM and the GI50 [24] was 110 nM. The GI50 [25] was 7280 nM and the GI50 [26] was 910 nM.
